According to ChEMBL document CHEMBL1201862, “PubChem BioAssay data set” (2004):
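Grown in 96-well plates, cells were treated for 48 hours with each compound at five concentrations. Insufficient inhibition: endpoint recorded as highest concentration tested. At the GI50, growth is halved.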 Activity calls are given as the source filed them. No stated cut-off is given here; in the data, active = GI50 up to about 1.1 µM and inactive = higher.

Key:
Test in all cases: NCI tumour cell line growth inhibition, 48 h
EKVX = system: EKVX
HCC 2998 = system: HCC 2998
HOP-62 = system: HOP-62
HOP-92 = system: HOP-92
IGROV-1 = system: IGROV-1
K562 = system: K562
KM-20L2 = system: KM-20L2
M14 = system: M14
M19-MEL = system: M19-MEL
Malme-3M = system: Malme-3M
NCI-H226 = system: NCI-H226
OVCAR-3 = system: OVCAR-3
RPMI-8226 = system: RPMI-8226
SK-MEL-5 = system: SK-MEL-5
SNB-78 = system: SNB-78
TK-10 = system: TK-10
UACC-62 = system: UACC-62
XF498 = system: XF498
HCT-116 = system: HCT-116

Measured: GI50

O=C1OC(CCCl)(c2ccccc2)CC1CN1CCOCC1 (stereo not given)
inactive: EKVX 19.9 µM | HCC 2998 26.3 µM | HOP-62 50.5 µM | HOP-92 16.6 µM | IGROV-1 23.6 µM | K562 14.8 µM | KM-20L2 39.5 µM | M14 20.4 µM | M19-MEL 22.1 µM | Malme-3M 18.4 µM | NCI-H226 13.8 µM | OVCAR-3 17.8 µM | RPMI-8226 3.84 µM | SK-MEL-5 19.7 µM | SNB-78 26.2 µM | TK-10 16.4 µM | UACC-62 21 µM | XF498 14.6 µM

COC(=O)N/N=C(/CCN1CCCC1)CC(c1ccccc1)c1c(O)c2ccccc2oc1=O (stereo not given)
inactive: EKVX > 100 µM | HCC 2998 > 100 µM | HCT-116 > 100 µM | HOP-62 > 100 µM | IGROV-1 > 100 µM | K562 > 100 µM | KM-20L2 > 100 µM | M14 > 100 µM | M19-MEL > 100 µM | Malme-3M > 100 µM | NCI-H226 > 100 µM | OVCAR-3 > 100 µM | RPMI-8226 > 100 µM | SK-MEL-5 > 100 µM | SNB-78 > 100 µM | TK-10 > 100 µM | UACC-62 72.8 µM | XF498 38.7 µM

O=C(c1ccccc1)[C@H]1Nc2ccc(Cl)cc2[C@H]2c3ccccc3O[C@H]21
inactive: EKVX 15.2 µM | HCC 2998 16.8 µM | HCT-116 17.2 µM | HOP-62 18.1 µM | IGROV-1 17.7 µM | K562 14.5 µM | KM-20L2 14.9 µM | M14 16.3 µM | M19-MEL 19.1 µM | Malme-3M 15.8 µM | NCI-H226 > 10 µM | OVCAR-3 13.1 µM | RPMI-8226 27 µM | SK-MEL-5 13.2 µM | SNB-78 14.9 µM | TK-10 16.7 µM | UACC-62 13.6 µM | XF498 14.7 µM

Cc1cc2c(CC(=O)O)n[nH]c2c(C(=O)O)c1C
inactive: EKVX > 100 µM | HCC 2998 > 100 µM | HCT-116 > 100 µM | HOP-62 > 100 µM | HOP-92 > 100 µM | KM-20L2 > 100 µM | M19-MEL > 100 µM | Malme-3M > 100 µM | NCI-H226 > 100 µM | OVCAR-3 > 100 µM | RPMI-8226 > 100 µM | SNB-78 > 100 µM | TK-10 > 100 µM | UACC-62 > 100 µM | XF498 > 100 µM

O=c1/c(=C/c2ccc(Cl)cc2Cl)sc2nc3ccccc3n12
inactive: EKVX > 100 µM | HCC 2998 > 100 µM | HCT-116 71.9 µM | HOP-62 > 100 µM | HOP-92 > 100 µM | IGROV-1 > 100 µM | K562 > 100 µM | KM-20L2 > 100 µM | M14 > 100 µM | M19-MEL > 100 µM | Malme-3M > 100 µM | NCI-H226 > 100 µM | OVCAR-3 > 100 µM | SK-MEL-5 > 100 µM | SNB-78 > 100 µM | TK-10 > 100 µM | UACC-62 > 100 µM | XF498 > 100 µM

CCc1cccc(C)c1NC(=O)CCc1nnc(SC)o1
inactive: EKVX > 100 µM | HCC 2998 > 100 µM | HCT-116 > 100 µM | HOP-62 > 100 µM | HOP-92 > 100 µM | IGROV-1 > 100 µM | K562 > 100 µM | KM-20L2 > 100 µM | M14 > 100 µM | M19-MEL > 100 µM | Malme-3M > 100 µM | OVCAR-3 > 100 µM | RPMI-8226 > 100 µM | SK-MEL-5 > 100 µM | SNB-78 > 100 µM | TK-10 > 100 µM | UACC-62 > 100 µM | XF498 > 100 µM
